# Data from ChEMBL document CHEMBL1201862, “PubChem BioAssay data set” (2004).
# Active and inactive are the calls of the source.
# Legend:
# [1] = intracellular Trypanosoma cruzi inhibitors in host cells – cell-based, plate reader, cherry-pick samples, set 3, dose response (AID 651818); assay type: functional;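 further: compounds incubated with infected cells for about four days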
# [2] = molecular target: T1, Carboxy-terminal domain RNA polymerase II polypeptide A small phosphatase 1 (Homo sapiens, UniProt Q9GZU7); test: CTDSP1 inhibitors, concentration-response, biochemical, absorbance readout, ultra-high-throughput screen actives (AID 540297); assay type: functional
# T1 sequence (Q9GZU7 whole entry): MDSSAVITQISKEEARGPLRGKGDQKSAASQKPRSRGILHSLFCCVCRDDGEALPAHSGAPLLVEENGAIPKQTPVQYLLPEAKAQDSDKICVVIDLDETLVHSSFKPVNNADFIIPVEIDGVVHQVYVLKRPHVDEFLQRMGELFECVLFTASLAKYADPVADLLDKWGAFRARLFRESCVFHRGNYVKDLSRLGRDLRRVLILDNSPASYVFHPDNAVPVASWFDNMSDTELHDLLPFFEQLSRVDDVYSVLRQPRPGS
# Fatty acid synthase [3] = molecular target: T2, Fatty acid synthase (Homo sapiens, UniProt P49327); test: inhibition of human FAS-TE enzyme activity – biochemical, kinetic fluorescence intensity, dose response (AID 624326); assay type: functional;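 further: rate of fluorescence rise from hydrolysis of a fluorogenic O-methyl fluorescein ester substrate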
# Fatty acid synthase [4] = molecular target: T2, Fatty acid synthase; test: inhibition of human FAS-TE enzyme activity – biochemical, endpoint fluorescence intensity, uHTS hits, dose response (AID 624327); assay type: functional;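 further: fluorescence from hydrolysis of an O-methyl fluorescein acyl ester substrate by the enzyme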
# Escherichia coli = test: microbe, parasite or virus in culture
# Vero = test: cells; assay type: functional; settings: Chlorocebus sabaeus
# [5] = molecular target: DNA dC->dU-editing enzyme APOBEC-3G (Homo sapiens, UniProt Q9HC16); test: Dose Response confirmation of small molecule APOBEC3G DNA Deaminase Inhibitors via a fluorescence-based single-stranded DNA deaminase assay. [Related pubchem assays (depositor defined):AID493012, AID493028]; assay type: functional
# [6] = molecular target: T3, Sentrin-specific protease 1 (Homo sapiens, UniProt Q9P0U3); test: SENP1 catalytic domain blockers, concentration series – biochemical, kinetic FRET, dose response (AID 651697); assay type: functional; settings: read-out: IC50_Mean
# T3 sequence (Q9P0U3 whole entry): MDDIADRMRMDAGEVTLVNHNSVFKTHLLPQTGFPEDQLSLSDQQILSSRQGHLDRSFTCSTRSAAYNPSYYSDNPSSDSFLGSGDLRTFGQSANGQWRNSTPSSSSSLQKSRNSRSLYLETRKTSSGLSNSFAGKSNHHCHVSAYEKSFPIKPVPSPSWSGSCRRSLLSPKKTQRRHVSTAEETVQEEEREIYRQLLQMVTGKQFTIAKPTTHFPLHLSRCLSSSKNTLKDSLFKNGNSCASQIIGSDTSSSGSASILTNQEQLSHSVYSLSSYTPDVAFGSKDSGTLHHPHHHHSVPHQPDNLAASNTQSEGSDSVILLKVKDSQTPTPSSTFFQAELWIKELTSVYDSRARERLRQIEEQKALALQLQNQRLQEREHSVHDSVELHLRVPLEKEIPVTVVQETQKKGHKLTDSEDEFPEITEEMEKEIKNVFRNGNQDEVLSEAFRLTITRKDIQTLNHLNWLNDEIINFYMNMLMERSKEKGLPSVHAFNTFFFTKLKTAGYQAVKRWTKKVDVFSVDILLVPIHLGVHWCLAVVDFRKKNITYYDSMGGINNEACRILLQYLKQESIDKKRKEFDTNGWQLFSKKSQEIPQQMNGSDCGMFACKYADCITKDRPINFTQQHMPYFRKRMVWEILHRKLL
# [7] = molecular target: T3, Sentrin-specific protease 1; test: Dose response confirmation of small molecule inhibitors of the catalytic domain of the SUMO protease, SENP1 in a FRET assay.; assay type: functional; settings: read-out: IC50_Mean
# INS1 = test: INS-1E survival protection against cytokine death – cell-based, luminescence, retest, dose response (AID 449756); assay type: functional; settings: Rattus norvegicus, INS1;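 further: cell death triggered by IL-1 beta plus TNF-alpha plus IFN-gamma mixture; protective hits raise ATP signal compared with cytokine alone wells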
# Streptokinase A = molecular target: T4, Streptokinase A (Streptococcus pyogenes serotype M1, UniProt P10520); test: viability-normalized secreted streptokinase activity reduction – plasminogen activation absorbance, OD405, dose response (AID 1914); assay type: functional, Streptococcus pyogenes M1 GAS;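 further: secreted streptokinase activity via plasminogen activation per viability signal from cell pellet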
# T4 sequence (P10520 whole entry): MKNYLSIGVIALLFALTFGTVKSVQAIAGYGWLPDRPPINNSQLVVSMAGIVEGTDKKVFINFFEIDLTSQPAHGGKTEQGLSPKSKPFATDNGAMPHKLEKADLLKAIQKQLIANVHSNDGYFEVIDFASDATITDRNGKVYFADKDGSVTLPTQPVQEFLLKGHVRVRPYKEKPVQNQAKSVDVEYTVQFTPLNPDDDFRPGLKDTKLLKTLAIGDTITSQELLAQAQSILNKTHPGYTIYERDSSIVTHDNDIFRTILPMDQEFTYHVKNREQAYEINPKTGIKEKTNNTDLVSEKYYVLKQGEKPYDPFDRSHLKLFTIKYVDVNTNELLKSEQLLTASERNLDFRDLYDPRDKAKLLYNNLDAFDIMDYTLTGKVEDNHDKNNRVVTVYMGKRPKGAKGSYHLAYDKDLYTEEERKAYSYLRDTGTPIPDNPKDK
# Streptococcus = test: GAS UMAA2166 growth inhibition – luminescence, BacTiterGlo, counter-screen for streptokinase expression inhibitor project, dose response (AID 1915); assay type: functional, organism-based;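 further: potency for reduction of bacterial viability or growth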
# [8] = system: Streptococcus sp. 'group A'; test: Streptococcus pyogenes SK(-)GAS viability under kanamycin – luminescence, BacTiterGlo, confirmation, counter-screen for streptokinase expression inhibitor project, dose response (AID 1900); assay type: functional, organism-based
# [9] = bead-based luminescence quenchers, dual-tagged ARNT – biochemical, AlphaScreen, cherry-pick, artefact control for ARNT-TACC3 interaction inhibitor project, dose response (AID 651705); assay type: functional;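 further: AlphaScreen bead proximity signal that flags compounds interfering with the detection technology; potency reflects signal decrease which marks the compound as an assay artifact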
# cells = assay type: functional
# [10] = THP-1 cell cytotoxicity, dose response, cytotoxicity control for non-replicating M. tuberculosis project (AID 489025); assay type: functional
# Protein Wnt-3a = Protein Wnt-3a (Mus musculus, UniProt P27467); test: antagonism of Wnt3a pathway luciferase reporter – Wnt-LIGHT cells, luminescence, selectivity assay for Gli-SUFU antagonist project, dose response (AID 651570); assay type: functional; settings: read-out: IC50_Mean;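 further: Wnt-LIGHT reporter cells stimulated with conditioned medium from Wnt3a-producing cells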
# [11] = molecular target: T5, Short transient receptor potential channel 4 (Mus musculus, UniProt Q9QUQ5); test: calcium entry via TRPC4 opening agents – cell-based, HEK293 TRPC4/mu-opioid, Fluo-4 calcium, dose response (AID 434937); assay type: functional
# T5 sequence (Q9QUQ5 whole entry): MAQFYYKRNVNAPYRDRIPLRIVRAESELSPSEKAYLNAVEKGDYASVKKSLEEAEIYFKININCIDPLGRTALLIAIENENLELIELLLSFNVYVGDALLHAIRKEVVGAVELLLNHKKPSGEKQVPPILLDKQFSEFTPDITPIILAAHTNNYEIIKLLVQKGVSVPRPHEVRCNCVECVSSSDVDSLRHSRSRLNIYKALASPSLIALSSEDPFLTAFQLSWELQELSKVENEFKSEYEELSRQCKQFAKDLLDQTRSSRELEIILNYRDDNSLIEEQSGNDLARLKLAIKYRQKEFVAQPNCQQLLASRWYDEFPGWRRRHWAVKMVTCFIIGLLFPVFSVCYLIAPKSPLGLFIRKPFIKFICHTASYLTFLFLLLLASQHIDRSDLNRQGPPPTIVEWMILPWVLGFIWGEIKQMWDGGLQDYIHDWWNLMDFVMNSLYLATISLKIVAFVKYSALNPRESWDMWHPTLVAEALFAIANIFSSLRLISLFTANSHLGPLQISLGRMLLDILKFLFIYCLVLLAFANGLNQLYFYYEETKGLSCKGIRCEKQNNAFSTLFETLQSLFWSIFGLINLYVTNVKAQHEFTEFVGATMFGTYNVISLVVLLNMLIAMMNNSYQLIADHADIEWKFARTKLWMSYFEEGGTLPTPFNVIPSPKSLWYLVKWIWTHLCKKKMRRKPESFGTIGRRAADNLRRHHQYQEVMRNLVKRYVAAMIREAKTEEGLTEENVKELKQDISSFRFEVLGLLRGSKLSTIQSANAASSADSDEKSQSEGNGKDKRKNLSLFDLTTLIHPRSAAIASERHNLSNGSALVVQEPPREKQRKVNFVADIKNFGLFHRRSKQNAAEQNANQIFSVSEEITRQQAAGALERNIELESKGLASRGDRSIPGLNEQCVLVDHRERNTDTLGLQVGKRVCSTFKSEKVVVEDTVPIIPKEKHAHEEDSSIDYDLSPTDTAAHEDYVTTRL
# Nonstructural protein 1 = Nonstructural protein 1 (Influenza A virus, UniProt Q194T2); assay type: functional, Influenza A virus (A/California/07/2009(H1N1))
# [12] = molecular target: T6, Microphthalmia-associated transcription factor (Homo sapiens, UniProt O75030); test: reducers of TRPM1 reporter luminescence, concentration series – cell-based, SK-MEL-5, cherry-picked, set 3, MITF inhibitor project, dose response (AID 493073); assay type: functional;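 further: SK-MEL-5 melanoma cells with luciferase driven by the MITF target TRPM1 promoter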
# T6 sequence (O75030 whole entry): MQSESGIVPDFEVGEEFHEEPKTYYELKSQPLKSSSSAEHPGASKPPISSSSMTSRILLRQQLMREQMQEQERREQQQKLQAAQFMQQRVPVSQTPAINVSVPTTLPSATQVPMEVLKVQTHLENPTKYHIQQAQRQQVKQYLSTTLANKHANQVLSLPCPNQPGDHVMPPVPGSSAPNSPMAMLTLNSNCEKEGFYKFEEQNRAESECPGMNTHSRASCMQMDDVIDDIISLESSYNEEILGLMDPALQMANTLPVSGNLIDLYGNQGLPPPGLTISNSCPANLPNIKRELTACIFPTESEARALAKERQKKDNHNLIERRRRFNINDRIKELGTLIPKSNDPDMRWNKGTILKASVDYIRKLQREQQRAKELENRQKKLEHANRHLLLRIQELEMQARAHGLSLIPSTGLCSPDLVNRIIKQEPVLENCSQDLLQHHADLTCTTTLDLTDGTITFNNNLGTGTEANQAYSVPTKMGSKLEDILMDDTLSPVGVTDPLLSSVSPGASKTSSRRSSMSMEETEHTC
# [13] = Trypanosoma cruzi growth suppression in host cells – NIH3T3 host cells, beta-gal luminescence, confirmation (AID 2044); assay type: functional, cell-based;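 further: intracellular parasites grown in NIH/3T3 mouse fibroblasts as host cells; luminescent beta-galactosidase reporter signal from transgenic T. cruzi replicating inside host cells; inhibitors lower the luminescence signal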
# [14] = NIH3T3 cell viability loss – ATP luminescence, mouse fibroblasts, counter-screen, dose response (AID 2010); assay type: functional, cell-based;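 further: cells exposed to compound for about 90 hours before reading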
# T2 sequence (P49327 whole entry): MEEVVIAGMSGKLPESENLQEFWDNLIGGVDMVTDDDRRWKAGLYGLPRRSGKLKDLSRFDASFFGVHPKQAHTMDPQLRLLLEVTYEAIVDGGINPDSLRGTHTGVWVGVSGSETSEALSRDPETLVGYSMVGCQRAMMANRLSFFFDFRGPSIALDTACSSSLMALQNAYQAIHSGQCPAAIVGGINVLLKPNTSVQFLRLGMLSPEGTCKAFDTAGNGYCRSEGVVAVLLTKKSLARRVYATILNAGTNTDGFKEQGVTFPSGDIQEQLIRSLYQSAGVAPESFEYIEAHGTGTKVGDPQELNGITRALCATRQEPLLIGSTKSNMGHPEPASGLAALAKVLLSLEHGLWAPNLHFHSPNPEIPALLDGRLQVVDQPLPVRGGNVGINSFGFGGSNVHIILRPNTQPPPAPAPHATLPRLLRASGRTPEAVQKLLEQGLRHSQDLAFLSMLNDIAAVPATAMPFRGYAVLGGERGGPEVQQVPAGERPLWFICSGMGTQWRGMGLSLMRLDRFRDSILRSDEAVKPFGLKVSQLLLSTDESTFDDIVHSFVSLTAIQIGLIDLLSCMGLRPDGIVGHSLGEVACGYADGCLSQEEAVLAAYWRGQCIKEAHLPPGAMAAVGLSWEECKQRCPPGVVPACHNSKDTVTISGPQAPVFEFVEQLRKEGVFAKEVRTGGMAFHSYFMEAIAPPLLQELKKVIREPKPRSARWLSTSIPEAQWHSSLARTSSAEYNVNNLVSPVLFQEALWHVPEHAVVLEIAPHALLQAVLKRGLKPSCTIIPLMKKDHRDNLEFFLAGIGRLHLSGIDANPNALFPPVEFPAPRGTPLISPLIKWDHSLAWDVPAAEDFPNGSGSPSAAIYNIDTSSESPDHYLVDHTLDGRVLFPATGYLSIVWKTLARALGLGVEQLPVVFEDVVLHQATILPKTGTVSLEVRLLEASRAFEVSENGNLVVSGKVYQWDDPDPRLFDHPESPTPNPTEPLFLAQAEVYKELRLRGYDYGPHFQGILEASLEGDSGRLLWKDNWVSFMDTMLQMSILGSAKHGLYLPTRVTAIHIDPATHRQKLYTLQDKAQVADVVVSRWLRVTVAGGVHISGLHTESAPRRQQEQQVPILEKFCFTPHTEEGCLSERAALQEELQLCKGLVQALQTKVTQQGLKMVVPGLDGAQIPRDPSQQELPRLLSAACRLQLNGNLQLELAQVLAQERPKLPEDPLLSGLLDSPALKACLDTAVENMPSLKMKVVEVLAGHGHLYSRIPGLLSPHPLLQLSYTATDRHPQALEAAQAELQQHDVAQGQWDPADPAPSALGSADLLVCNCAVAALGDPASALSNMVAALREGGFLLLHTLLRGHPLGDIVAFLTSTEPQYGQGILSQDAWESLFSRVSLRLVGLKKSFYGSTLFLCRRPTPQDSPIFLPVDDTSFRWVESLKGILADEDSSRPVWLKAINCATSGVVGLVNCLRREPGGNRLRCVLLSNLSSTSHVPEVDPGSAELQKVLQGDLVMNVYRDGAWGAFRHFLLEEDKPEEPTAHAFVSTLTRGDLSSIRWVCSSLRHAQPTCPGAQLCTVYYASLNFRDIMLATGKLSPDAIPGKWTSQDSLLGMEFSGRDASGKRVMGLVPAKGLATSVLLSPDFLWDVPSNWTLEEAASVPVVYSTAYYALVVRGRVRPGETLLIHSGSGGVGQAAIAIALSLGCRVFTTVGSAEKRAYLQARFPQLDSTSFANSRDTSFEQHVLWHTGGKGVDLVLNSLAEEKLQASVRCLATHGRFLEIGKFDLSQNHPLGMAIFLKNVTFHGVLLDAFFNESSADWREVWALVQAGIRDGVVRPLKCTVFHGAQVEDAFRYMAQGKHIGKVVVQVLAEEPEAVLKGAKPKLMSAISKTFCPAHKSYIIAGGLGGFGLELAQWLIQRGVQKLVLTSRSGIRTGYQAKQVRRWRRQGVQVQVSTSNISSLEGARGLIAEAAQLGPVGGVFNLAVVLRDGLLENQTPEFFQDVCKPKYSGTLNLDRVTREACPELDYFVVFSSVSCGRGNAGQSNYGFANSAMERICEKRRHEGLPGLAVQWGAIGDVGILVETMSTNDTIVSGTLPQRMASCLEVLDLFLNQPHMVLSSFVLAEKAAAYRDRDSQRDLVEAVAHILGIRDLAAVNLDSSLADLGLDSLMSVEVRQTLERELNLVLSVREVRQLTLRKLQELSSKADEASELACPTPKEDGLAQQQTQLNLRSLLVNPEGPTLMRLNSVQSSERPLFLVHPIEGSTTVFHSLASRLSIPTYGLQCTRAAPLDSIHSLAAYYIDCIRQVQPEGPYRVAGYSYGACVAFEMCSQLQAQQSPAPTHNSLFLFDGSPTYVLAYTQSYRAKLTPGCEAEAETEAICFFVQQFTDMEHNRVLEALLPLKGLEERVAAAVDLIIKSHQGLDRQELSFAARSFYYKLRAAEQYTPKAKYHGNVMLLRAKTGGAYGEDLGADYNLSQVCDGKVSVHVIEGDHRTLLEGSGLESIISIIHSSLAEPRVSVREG
# Protein Wnt-3a, sequence (P27467 whole entry): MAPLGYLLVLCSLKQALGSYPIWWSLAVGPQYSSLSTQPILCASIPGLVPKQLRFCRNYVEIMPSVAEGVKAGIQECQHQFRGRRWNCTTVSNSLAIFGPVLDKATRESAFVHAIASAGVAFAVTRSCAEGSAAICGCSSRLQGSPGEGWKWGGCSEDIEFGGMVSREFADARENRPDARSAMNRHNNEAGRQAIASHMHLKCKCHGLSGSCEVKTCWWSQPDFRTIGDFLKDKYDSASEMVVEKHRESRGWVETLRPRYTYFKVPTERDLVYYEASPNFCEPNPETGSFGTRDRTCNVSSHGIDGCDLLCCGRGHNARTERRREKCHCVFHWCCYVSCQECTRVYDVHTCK
# Nonstructural protein 1, sequence (Q194T2 whole entry): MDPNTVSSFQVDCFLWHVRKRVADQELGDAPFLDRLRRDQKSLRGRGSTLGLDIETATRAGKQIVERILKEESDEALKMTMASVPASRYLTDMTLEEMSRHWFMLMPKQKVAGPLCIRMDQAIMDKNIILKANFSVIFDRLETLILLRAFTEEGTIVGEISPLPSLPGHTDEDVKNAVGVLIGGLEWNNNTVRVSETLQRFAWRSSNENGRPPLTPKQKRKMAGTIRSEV
# DNA dC->dU-editing enzyme APOBEC-3G, sequence (Q9HC16 whole entry, the tested form may be a part): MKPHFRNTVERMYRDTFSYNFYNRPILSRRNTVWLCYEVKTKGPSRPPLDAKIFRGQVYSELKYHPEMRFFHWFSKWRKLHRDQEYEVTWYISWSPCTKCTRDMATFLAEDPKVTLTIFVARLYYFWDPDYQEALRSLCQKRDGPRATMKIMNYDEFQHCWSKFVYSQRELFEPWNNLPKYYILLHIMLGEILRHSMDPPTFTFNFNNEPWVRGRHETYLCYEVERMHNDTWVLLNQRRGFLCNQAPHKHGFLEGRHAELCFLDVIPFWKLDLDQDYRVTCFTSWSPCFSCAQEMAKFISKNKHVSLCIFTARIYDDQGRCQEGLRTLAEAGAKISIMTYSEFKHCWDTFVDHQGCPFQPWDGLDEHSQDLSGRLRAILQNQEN
smiles,measurement,setting,value
C[C@H]1CN([C@@H](C)CO)C(=O)c2cccc(NC(=O)c3ccncc3)c2O[C@H]1CN(C)C(=O)Nc1ccccc1,AC50,[1],2.61 µM (active)
same,IC50,[2],13.8 µM (active)
Cc1ccc(C(=O)N/C(=C\c2cn(S(=O)(=O)N(C)C)c3ccccc23)C(=O)NCCN2CCOCC2)cc1,IC50,Fatty acid synthase [3],16.5 µM (active)
same,IC50,Fatty acid synthase [4],12.7 µM (active)
C[C@H](CO)N1C[C@H](C)[C@H](CN(C)Cc2ccc(C(F)(F)F)cc2)Oc2c(NC(=O)CCCCCC(=O)Nc3ccccc3N)cccc2C1=O,AC50,[1],1.92 µM (active)
COc1ccc(/C=C(/NC(=O)c2cccc([N+](=O)[O-])c2)C(=O)O)cc1,AC50,Escherichia coli,84.9 µM (active)
C[C@H](CO)N1C[C@H](C)[C@H](CN(C)Cc2ccc(C(=O)Nc3ccccc3N)cc2)Oc2ccc(N(C)C)cc2CC1=O,AC50,[1],2.03 µM (active)
COc1ccccc1/C=C1\SC(=S)N(CCC(=O)NCCc2ccc(O)cc2)C1=O,CC50,Vero,> 25 µM (active)
O=C1C=CC(=O)C=C1 [BENZOQUINONE],IC50,[5],36.1 µM (active)
Cc1ccc([N+](=O)[O-])cc1NC(=O)c1ccc(C(C)(C)C)cc1,IC50,Fatty acid synthase [3],4.59 µM (active)
same,IC50,Fatty acid synthase [4],5.57 µM (active)
Cc1sc(-c2ccccn2)nc1OC(=O)c1ccc(F)cc1F,IC50,[6],3.57 µM (active)
same,IC50,[7],16.6 µM (active)
c1ccc(CNc2nc(-c3ccccn3)nc3ccccc23)cc1,AC50,INS1,2.62 µM (active)
same,EC50,Streptokinase A,> 150 µM (not active)
same,EC50,Streptococcus,6.86 µM (active)
same,EC50,[8],2.57 µM (active)
same,AC50,[9],80.1 µM (active)
O=C1/C(=C/c2ccccn2)COc2ccccc21,IC50,cells,20.9 µM (active)
same,CC50,[10],28.2 µM (active)
O=C(NCCc1cccc(Cl)c1)c1ccc(OC2CCN(Cc3ccccn3)CC2)cc1,IC50,Protein Wnt-3a,28.8 µM (inactive)
same,EC50,[11],0.944 µM (active)
CCOC(=O)c1c(NC(=O)CN2CCN(C)CC2)sc(C(=O)Nc2ccccc2)c1C,CC50,Vero,> 25 µM (active)
O=C1C=C(c2cccc(Cl)c2O)C[C@@H](c2ccc(F)cc2)C1,IC50,[6],2.61 µM (active)
same,IC50,[7],1.14 µM (active)
O=[N+]([O-])c1ccc(O)c(/C=N/Nc2nc3ccccc3[nH]2)c1,AC50,INS1,0.559 µM (active)
same,IC50,Nonstructural protein 1,10.3 µM (active)
same,EC50,Streptococcus,1.56 µM (active)
same,EC50,[8],0.716 µM (active)
same,AC50,Escherichia coli,25.6 µM (active)
C[C@H](CO)N1C[C@H](C)[C@H](CN(C)S(=O)(=O)c2ccccc2)Oc2ccc(NC(=O)Nc3ccc(C(F)(F)F)cc3)cc2CC1=O,AC50,[1],4.13 µM (active)
CC(OC(=O)c1ccc([N+](=O)[O-])s1)C(=O)NC1CCCCC1C (centres undefined),IC50,cells,14.1 µM (active)
same,AC50,[12],12 µM (active)
Cc1cccc(NC(=O)CSc2cccc3cccnc23)c1C,AC50,[9],91.7 µM (active)
Cc1ccccc1N(CC(=O)NCc1ccc2c(c1)OCO2)C(=O)C1CSC(=O)C1 (centres undefined),IC50,Fatty acid synthase [3],4.48 µM (active)
same,IC50,Fatty acid synthase [4],5.85 µM (active)
COc1ccc(C2=Nn3c(nnc3-c3ccccn3)SC2)cc1,AC50,[9],125 µM (active)
CCOC(=O)N1C(=O)[C@](CC)(c2ccccc2)N1C(=O)OCC,AC50,[12],10 µM (active)
COC(=O)c1ccc(C2CC(=O)Nc3cc(OC)c(OC)cc32)cc1 (centres undefined),AC50,Escherichia coli,32 µM (active)
O=C(N/N=C\c1ccc([N+](=O)[O-])o1)C1COc2ccccc2O1 (centres undefined),EC50,[13],0.532 µM (active)
same,IC50,cells,4.2 µM (active)
same,EC50,[14],> 60 µM (inconclusive)
same,AC50,[12],7.21 µM (active)
same,CC50,[10],32.5 µM (active)
